{"source": "paper PMC6050274", "about": "“Buparlisib is a brain penetrable pan-PI3K inhibitor” (Scientific Reports, 2018)", "key": {"[1]": {"experiment": "Brain and tissue penetration after i.v. administration in wildtype and P-gp/BCRP knockout mice", "type": "in vivo, FVB mice", "conditions": "2 mg/kg i.v.", "procedure": "To study whether P-gp and BCRP attenuate buparlisib brain penetration in vivo, we measured the brain and plasma concentration in wildtype (WT), Abcg2^−/−, Abcb1a/b^−/− and Abcb1a/b; Abcg2^−/− mice 1 hour after i.v. administration of 2 mg/kg buparlisib.\nFigure 2 The impact of P-gp and BCRP on the brain and tissue penetration of buparlisib. Buparlisib was administered intravenously to wildtype, Abcg2^−/−, Abcb1a/b^−/− and Abcb1a/b;Abcg2^−/− mice at a dose of 2 mg/kg. One hour after injection, blood and tissues were collected for LC-MS/MS analysis. […] All data are represented as mean ± SD (n = 4).\n(§1) The pharmacokinetics of buparlisib were analysed in WT, Abcg2^−/−, Abcb1a/b^−/− and Abcb1a/b; Abcg2^−/− FVB mice. All knockout mice strains have been developed within our institute[41]–[43]. For i.v. administration, buparlisib was dissolved in DMSO and injected at a dose of 2 mg/kg. For oral administration, buparlisib was formulated in DMSO:Cremophor EL:water (1:1:8 v/v/v) and administered at 1, 2 or 5 mg/kg as indicated. Tail vein bleeding was used to collect blood at intermediate time points, whereas at the last time point blood was drawn by cardiac puncture and various tissue were collected. Plasma was obtained from whole blood by centrifugation (5 min, 5,000 rpm, 4 °C). After weighing, tissues were homogenized using a FastPrep®-24 (MP-Biomedicals, NY) in 1% (w/v) bovine serum albumin in water. Buparlisib was extracted from plasma and tissue homogenate by liquid-liquid extraction with ethyl acetate using AZD8055 as an internal standard.\nBuparlisib was measured in samples from in vitro transport assays and in vivo pharmacokinetic studies using an LC-MS/MS system comprised of an UltiMate 3000 LC Systems (Dionex, Sunnyvale, CA) and an API 4000 mass spectrometer (Sciex, Framingham, MA). Samples were run through a Securityguard C18 pre-column (Phenomenex, Utrecht, The Netherlands) prior to separation on a ZORBAX Extend-C18 column (Agilent, Santa Clara, CA). Elution was done using a in a 5 minute gradient from 20% to 95% B (mobile phase A was 0.1% HCOOH in water (v/v) and mobile phase B was methanol). 95% B was maintained for 3 min followed by re-equilibration at 20% B. Multiple reaction monitoring was performed at 411.3/367.2 (buparlisib) and 418.2/138.4 (AZD8055). Analyst® 1.6.2 software (AB Sciex; Foster City, CA) was used for system control and data analysis.\nAs described in detail before, CETA results were analysed with the General linear model repeated measures procedure of SPSS (v22; SPSS Inc, Chicago, IL)[25]. PK solver was used to determine pharmacokinetic parameters. The standard error of the oral bioavailability was calculated using the formula below: SEF=F(SEAUCp.o./AUCp.o.)^2+(SEAUCi.v./AUCi.v.)^2 Buparlisib concentrations in WT and transporter knockout mice in vivo were compared using one-way analysis of variance followed by post hoc Bonferroni tests. Statistical differences between the buparlisib PK parameters in male and female mice were calculated as Bonferroni corrected p-values using multiple Student’s t-tests. Differences were considered statistically significant when p < 0.05."}, "[2]": {"experiment": "Plasma and brain levels after oral administration in wildtype mice", "type": "in vivo, FVB mice", "procedure": "First, we could confirm that buparlisib also achieves excellent brain penetration after oral administration, since the observed brain-plasma ratio in WT FVB mice was in line with those obtained following i.v. administration (Figs 2C, 3A).\nFigure 3 Buparlisib has excellent intracranial target engagement and oral bioavailability. (A) Buparlisib was orally administered to wildtype mice at a dose of 1 mg/kg, 2 mg/kg or 5 mg/kg. One hour after injection, blood and tissues were collected for LC-MS/MS analysis. Buparlisib plasma and brain levels increase dose-dependently, yielding similar and excellent brain-plasma ratios at all dose levels that were tested. (B) Immunoblotting of brain tissue lysates from (A). […] (C) Plasma-time curves of male and female wildtype mice following intravenous (2 mg/kg) or oral (5 mg/kg) administration. […] The oral bioavailability of buparlisib is excellent, since oral and intravenous administration yielded similar dose-adjusted AUCs (see Table 1). All data are represented as mean ± SD (n = 4).\nas §1, with “Buparlisib was extracted from plasma and tissue homogenate by liquid-liquid extraction with ethyl acetate using AZD8055 as an internal standard.” left out\nBuparlisib was measured in samples from in vitro transport assays and in vivo pharmacokinetic studies using an LC-MS/MS system comprised of an UltiMate 3000 LC Systems (Dionex, Sunnyvale, CA) and an API 4000 mass spectrometer (Sciex, Framingham, MA). […]"}}, "data": [{"smiles": "Nc1cc(C(F)(F)F)c(-c2cc(N3CCOCC3)nc(N3CCOCC3)n2)cn1", "note": "[buparlisib]", "values": [{"measurement": "brain concentration compared with liver, kidney and spleen concentrations", "setting": "[1]; 1 hour", "value": "slightly higher"}, {"measurement": "kidney level compared with concurrent plasma level", "setting": "[1]; 1 hour", "value": "lower"}, {"measurement": "liver level compared with concurrent plasma level", "setting": "[1]; 1 hour", "value": "equal"}, {"measurement": "spleen level compared with concurrent plasma level", "setting": "[1]; 1 hour", "value": "lower"}, {"measurement": "differences among mouse strains in plasma and brain concentrations", "setting": "[1]; 1 hour, WT vs transporter knockout mice", "value": "No differences"}, {"measurement": "Kp at 1 h", "setting": "[1]; FVB, mouse, brain/plasma, intravenous, all strains (WT, Abcg2-/-, Abcb1a/b-/-, Abcb1a/b;Abcg2-/-), read-out: brain-plasma ratio", "value": "1.5 to 2"}, {"measurement": "Kp at 1 h", "setting": "[2]; FVB, mouse, brain/plasma, other: intravenous and oral, i.v. 2 mg/kg and oral 1, 2, 5 mg/kg (Figs 2C, 3A), read-out: brain-plasma ratio", "value": "1.5 to 2"}, {"measurement": "concentration at 1 h", "setting": "[2]; FVB, mouse, plasma, 5 mg/kg oral, WT mice, 1 hour, read-out: plasma level", "value": "~1200", "unit": "ng/mL"}, {"measurement": "change of plasma and brain concentrations with dose", "setting": "[2]; oral 1, 2, 5 mg/kg, WT mice, 1 hour", "value": "dose-proportional increase"}]}]}
